Experimental data from US11140903B2, “Fungicidal compositions and methods” (Bayer CropScience LP, priority 2010, dated 2021).

Key:
[1] = test system: Botrytis; experiment: Fluopyram efficacy by fungus (Table 3)
[2] = test system: Sclerotinia; experiment: Fluopyram efficacy by fungus (Table 3)
[3] = test system: Monilinia; experiment: Fluopyram efficacy by fungus (Table 3)
[4] = test system: Mycosphaerella; experiment: Fluopyram efficacy by fungus (Table 3)
[5] = test system: Sigatoka; experiment: Fluopyram efficacy by fungus (Table 3)
[6] = test system: Venturia; experiment: Fluopyram efficacy by fungus (Table 3)
[7] = test system: Alternaria; experiment: Fluopyram efficacy by fungus (Table 3)
[8] = test system: Pyrenophora; experiment: Fluopyram efficacy by fungus (Table 3)
[9] = test system: Anthracnose; experiment: Fluopyram efficacy by fungus (Table 3)
[10] = test system: Colletotrichum; experiment: Fluopyram efficacy by fungus (Table 3)
Text: (§1) Without wishing to be bound by theory, the applicant hypothesizes that the decreased incidence and severity of SDS observed in plants from seed treated with fluopyram contributes to improved vigor and reduced defoliation, which in turn contributes to improved yield.

[11] = test system: Fusarium; experiment: Fluopyram efficacy by fungus (Table 3)
Text: as §1

[12] = test system: Rusts; experiment: Fluopyram efficacy by fungus (Table 3)
Text: as §1

[13] = test system: sudden death syndrome (SDS); experiment: Soybean seed treatment: resistance to SDS (incidence, severity, defoliation); type: in vivo, Glycine max (L.) Merr.
Experimental: (§2) Soybean seeds (Glycine max (L.) Merr., an indeterminate line) were treated with Trilex® 2000 (7.12% (w/v) trifloxystrobin, 5.69% (w/v) metalaxyl), Gaucho® 600 FS (48.7%, (w/v) imidacloprid), Votivo® 240 FS (21.5%, (w/v) Bacillus firmus strain 1-1582), and fluopyram (41.5%, (w/v)) in the amounts and combinations shown in TABLE 1.
(§3) Seed growth and resistance to SDS were evaluated. Data on the incidence and severity of disease, plant vigor, plant count, plant density, defoliation, and yield were collected. Identification of SDS was based on the visual symptoms described in “Compendium of Soybean Diseases” (Glen Lee Hartman, J. B. Sinclair, and John Clark Rupe, eds. Am. Phytopathological Soc. 1999).
Disease incidence was defined as the percentage of plants in the plot with visible symptoms of SDS. […] The values above each bar in FIG. 1 are the value of that bar along they-axis.
Symptoms of disease severity were determined as percent severity, on a scale of 0% to 100%, by examining the leaf area on the tops of plants and determining the area affected by SDS, expressed as a percentage of the total area. […] The error bars of FIG. 2 represent standard error, and the values above each bar are the value of that bar along the y-axis.
Defoliation was defined as the percentage of plants showing evidence of defoliation in a given plot (i.e., on a scale of 0% to 100%). […] The values above each bar are the value of that bar along the y-axis.

[14] = test system: soybean plants; experiment: Soybean seed treatment: plant vigor, count density and yield; type: in vivo, Glycine max (L.) Merr.
Experimental: as §2, §3
Vigor ratings, based on visual assessments of plant health, were collected according to the system shown in TABLE 2, with 1 being a healthy and vigorous plant and 6 being extremely low vigor.
The error bars of FIG. 3 represent standard error, and the values within each bar are the value of that bar along the y-axis.
Plant density was calculated as the change in density versus controls. […] The values above or below each bar are the value of that bar along the y-axis.
To determine yield, soybeans were harvested from each plot, weighed, and their moisture content determined. The data from each treatment were normalized to the standard weight of 60 pounds of soybeans at 13% moisture. […] The values above or below each bar are the value of that bar along the y-axis.

[15] = test system: Powdery mildews; details: Fungus: Powdery mildews
[16] = test system: Didymella; details: Fungus: Didymella
[17] = test system: Cylindrocladium; details: Fungus: Cylindrocladium
[18] = test system: Septoria; details: Fungus: Septoria

O=C(NCCc1ncc(C(F)(F)F)cc1Cl)c1ccccc1C(F)(F)F [Fluopyram, N-{2-[3-chloro-5-(trifluoromethyl)-2-pyridinyl]ethyl}-2-trifluoromethylbenzamide]
Fluopyram Efficacy [1]: ++++ | Fluopyram Efficacy [2]: ++++ | Fluopyram Efficacy [3]: ++++ | Fluopyram Efficacy [4]: ++++ | Fluopyram Efficacy [5]: ++++ | Fluopyram Efficacy [6]: +++ | Fluopyram Efficacy [7]: +++ | Fluopyram Efficacy [8]: +++ | Fluopyram Efficacy [9]: + | Fluopyram Efficacy [10]: ++ | Fluopyram Efficacy ([11]; Fungus: Fusarium): + | efficacy of fluopyram against Fusarium ([11]; relative to other fungi): low | Fluopyram Efficacy [12]: + | Disease incidence (percentage of plants in the plot with visible symptoms of SDS) ([13]; FIG. 1, compared between seeds with and without fluopyram): significantly reduced disease incidence | Disease severity (percent leaf area affected by SDS) ([13]; FIG. 2, compared between seeds with and without fluopyram): less disease severity | Defoliation (percentage of plants showing evidence of defoliation in a plot) ([13]; FIG. 5, compared between seeds with and without fluopyram): less defoliation | Count density (change in plant density versus control) ([14]; fluopyram alone, 0.17-0.67 mga/seed (columns 4-6), FIG. 4, versus control): decreased count density | Vigor (visual vigor rating, scale 1-6 of Table 2) ([14]; soybean seed treatment, FIG. 3): not adversely affected | Percent yield versus control ([14]; soybean seed treatment, FIG. 6, normalized to 60 pounds at 13% moisture, versus seeds not treated with fluopyram): greater percent yield | Fluopyram Efficacy [15]: ++++ | Fluopyram Efficacy [16]: ++ | Fluopyram Efficacy [17]: ++ | Fluopyram Efficacy [18]: ++
